In patent publication US20260374766A1, “METHODS FOR TREATING CANCER” (Antares Therapeutics, Inc., priority 2022, published 2026):
pIC50, pKd: −log10 of the molar value. Read-outs that look alike come from different tables or passages of the source.

What was measured:
[1] = target: T1, p53 Y220C mutant protein (amino acid residues 94-293) (Homo sapiens, UniProt P04637, Y220C); assay: Surface Plasmon Resonance (SPR) assay, Kd_kinetic; assay type: binding; conditions: SPR, p53 Y220C, read-out: SPR P53 Y220C KD kinetic
T1 construct: p53 Y220C mutant protein (amino acid residues 94-293)
Outline: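 Kinetic dissociation constants derived by 1:1 model fit of SPR data acquired at 16 or 20 °C, pH 7.5 Tris/NaCl running buffer with 1% DMSO.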

[2] = target: T1, p53 Y220C mutant protein (amino acid residues 94-293); assay: Thermal Shift Assay (TSA), dTM; assay type: binding; conditions: for ΔTm at 10 µM: 10 uM compound; for ΔTm at 100 µM: 100 uM compound, read-out: TSA P53 Y220C dTM (100 uM)
Outline: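 Differential scanning fluorimetry with Sypro Orange on 5 μM p53 Y220C residues 94-293, compound tested at 10 μM or 100 μM after 3 hours at 20 °C; buffer 20 mM HEPES, pH7.4, 100 mM NaCl, 1% DMSO.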

p53 Y220C = p53 Y220C (Homo sapiens, UniProt P04637, Y220C); assay: Luciferase Reporter Assay (Luc), p53 response element, NClH1299 cells with inducible p53 Y220C; assay type: cell-based; conditions: luciferase reporter, NClH1299 inducible p53 Y220C, 6 hour; for AC50: read-out: Luc P53 Y220C AC50
Outline: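 24 h dox pre-induction (0.5 ug/mL), then 6 h compound; One-Glo luminescent read.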

NUGC3 p53 Y220C = assay: Cell Proliferation Assay (CellTiter-Glo, CTG), NUGC3 p53 Y220C; assay type: cell-based; conditions: Homo sapiens, NUGC-3, 120 h, CellTiter-Glo, 5 days
Outline: (§1)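 Tet-One inducible p53 Y220C or R273H constructs were stably introduced into NCI-H1299 by lentiviral transduction; NUGC3 was used as is. Cells (250-500 per well) were exposed to compound for 5 days, then CellTiter-Glo was added for 10 min at room temperature and IC50 was calculated from luminescence.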

H1299 p53 Y220C = assay: Cell Proliferation Assay (CellTiter-Glo, CTG), H1299 p53 Y220C (NClH1299-inducible p53 Y220C); assay type: cell-based; conditions: Homo sapiens, NCI-H1299, 120 h, CellTiter-Glo, 5 days
Outline: as §1

H1299 p53 R273H = assay: Cell Proliferation Assay (CellTiter-Glo, CTG), H1299 p53 R273H (NClH1299-inducible p53 R273H); assay type: cell-based; conditions: Homo sapiens, NCI-H1299, 120 h, CellTiter-Glo, 5 days
Outline: as §1

[3] = thermal shift, read-out: TSA P53 Y220C dTM (10 uM)
[4] = 10 uM tool compound as positive control

Row | Compound | pKd ([1]; kinetic KD) | ΔTm at 10 µM [2, 3] | ΔTm at 100 µM ([2]; thermal shift) | Emax (p53 Y220C; [4]) | AC50 (p53 Y220C) | pIC50 (NUGC3 p53 Y220C; NUGC3 p53 Y220C) | pIC50 (H1299 p53 Y220C; H1299 p53 Y220C) | pIC50 (H1299 p53 R273H; H1299 p53 R273H) | pKd [1] | ΔTm at 10 µM ([2]; p53 Y220C, read-out: TSA P53 Y220C dTM) | AC50 (p53 Y220C; AC50) | Emax (p53 Y220C; Emax) | pIC50 (NUGC3 p53 Y220C; NUGC3 cells) | pIC50 (H1299 p53 Y220C; NClH1299-inducible p53 Y220C cells) | pIC50 (H1299 p53 R273H; NClH1299-inducible p53 R273H cells)
1 | CNC(=O)c1ccc(NCC#Cc2nc3c(N[C@@H]4CCN(C)C[C@@H]4F)cccn3c2SC(F)F)c(OC)c1 [Example 106, 4-[(3-{3-[(difluoromethyl)sulfanyl]-8-{[(3S,4R)-3-fluoro-1-methylpiperidin-4-yl]amino}imidazo[1,2-a]pyridin-2-yl}prop-2-yn-1-yl)amino]-3-methoxy-N-methylbenzamide] | > 8.00 | 5 to 10 °C | ≥ 10 °C | 70 to 80% | < 750 nM | > 6.12 | > 6.12 | ≤ 5.00 |  |  |  |  |  |  | 
2 | CNC(=O)c1ccc(NCC#Cc2nc3c(N[C@@H]4CN(C)CC[C@@H]4F)cccn3c2SC(F)(F)F)c(OC)c1 [Example 146] | > 8.00 | ≥ 10 °C | ≥ 10 °C | 70 to 80% | < 750 nM | > 6.12 | > 6.12 | 5.10 to 5.30 |  |  |  |  |  |  | 
3 | COc1cc2n[nH]cc2cc1NCC#Cc1nc2c(N[C@@H]3CCN(C)C[C@@H]3F)cccn2c1SC(F)(F)F [Example 128] | > 8.00 | ≥ 10 °C | ≥ 10 °C | 80 to 90% | < 750 nM | 5.82 to 6.12 | 5.82 to 6.12 | > 5.30 |  |  |  |  |  |  | 
4 | CNC(=O)c1ccc(OC)c(NCC#Cc2nc3c(N[C@@H]4CNC[C@@H]4F)cccn3c2SC(F)(F)F)c1 [Example 152] | > 8.00 | ≥ 10 °C | ≥ 10 °C | 70 to 80% | < 750 nM | > 6.12 | > 6.12 | ≤ 5.00 |  |  |  |  |  |  | 
5 | CNC(=O)c1ccc(NCC#Cc2cc3c(N[C@@H]4CCNC[C@@H]4F)nccn3c2SC(F)(F)F)c(OC)c1 [Example 295] |  |  |  |  |  |  |  |  | > 8.00 | ≥ 10 °C | < 750 nM | > 90% | > 6.12 | > 6.12 | 5.00 to 5.10
6 | CNC(=O)c1ccc(NCC#Cc2nc3c(N[C@H]4C[C@@H]5CC[C@@H](N5)[C@H]4F)cccn3c2SC(F)(F)F)c(OC)c1 [Example 201] | > 8.00 | ≥ 10 °C | ≥ 10 °C | 80 to 90% | < 750 nM | > 6.12 | > 6.12 | 5.10 to 5.30 |  |  |  |  |  |  | 
7 | CNC(=O)c1ccc(NCC#Cc2nc3c(N[C@@H]4CCN(C)C[C@@H]4F)cccn3c2CC(F)(F)F)c(OC)n1 [Example 92, 5-{[3-(8-{[(3S,4R)-3-fluoro-1-methylpiperidin-4-yl]amino}-3-(2,2,2-trifluoroethyl)imidazo[1,2-a]pyridin-2-yl)prop-2-yn-1-yl]amino}-6-methoxy-N-methylpyridine-2-carboxamide] | > 8.00 |  | 5 to 10 °C | 80 to 90% | < 750 nM | > 6.12 | > 6.12 | 5.10 to 5.30 |  |  |  |  |  |  | 
8 | CNS(=O)(=O)c1ccc(NCC#Cc2nc3c(N[C@@H]4CCN(C)C[C@@H]4F)cccn3c2CC(F)(F)F)c(OC)c1 [Example 64, 4-{[3-(8-{[(3S,4R)-3-fluoro-1-methylpiperidin-4-yl]amino}-3-(2,2,2-trifluoroethyl)imidazo[1,2-a]pyridin-2-yl)prop-2-yn-1-yl]amino}-3-methoxy-N-methylbenzenesulfonamide] | > 8.00 | ≥ 10 °C | ≥ 10 °C | 70 to 80% | 750 to 1500 nM | > 6.12 | > 6.12 | 5.00 to 5.10 |  |  |  |  |  |  | 
9 | CNC(=O)c1ccc(NCC#Cc2nc3c(N[C@@H]4CCOC[C@@H]4F)cccn3c2SC(F)(F)F)c(OC)c1 [Example 101, 4-{[3-(8-{[(3R,4R)-3-fluorooxan-4-yl]amino}-3-[(trifluoromethyl)sulfanyl]imidazo[1,2-a]pyridin-2-yl)prop-2-yn-1-yl]amino}-3-methoxy-N-methylbenzamide] | > 8.00 | 5 to 10 °C | ≥ 10 °C | 80 to 90% | < 750 nM | > 6.12 | > 6.12 | ≤ 5.00 |  |  |  |  |  |  | 
10 | CNC(=O)c1ccc(OC)c(NCC#Cc2nc3c(N[C@H]4C[C@@H]5CC[C@H]([C@H]4F)N5C)cccn3c2SC(F)(F)F)c1 [Example 200] | > 8.00 | ≥ 10 °C | ≥ 10 °C | 70 to 80% | < 750 nM | > 6.12 | > 6.12 | ≤ 5.00 |  |  |  |  |  |  | 
11 | CNC(=O)c1ccc(OC)c(NCC#Cc2nc3c(N[C@@H]4C[C@H]5CC[C@@H]([C@@H]4F)N5C)cccn3c2SC(F)(F)F)c1 [Example 199] | > 8.00 | ≥ 10 °C | ≥ 10 °C | 70 to 80% | < 750 nM | > 6.12 | > 6.12 | > 5.30 |  |  |  |  |  |  | 
12 | CNC(=O)c1ccc(NCC#Cc2nc3c(N[C@@H]4CCN(C)C[C@@H]4F)cccn3c2SC(F)(F)F)c(OCCOC)c1 [Example 104, 4-{[3-(8-{[(3S,4R)-3-fluoro-1-methylpiperidin-4-yl]amino}-3-[(trifluoromethyl)sulfanyl]imidazo[1,2-a]pyridin-2-yl)prop-2-yn-1-yl]amino}-3-(2-methoxyethoxy)-N-methylbenzamide] | > 8.00 | ≥ 10 °C | ≥ 10 °C | 80 to 90% | < 750 nM | > 6.12 | > 6.12 | 5.00 to 5.10 |  |  |  |  |  |  | 
13 | CNC(=O)c1ccc(NCC#Cc2nc3c(N[C@@H]4CCN(C)C[C@@H]4F)cccn3c2CC(F)(F)F)c(OCC(F)(F)F)c1 [Example 61, 4-{[3-(8-{[(3S,4R)-3-fluoro-1-methylpiperidin-4-yl]amino}-3-(2,2,2-trifluoroethyl)imidazo[1,2-a]pyridin-2-yl)prop-2-yn-1-yl]amino}-N-methyl-3-(2,2,2-trifluoroethoxy)benzamide] | 7.00 to 8.00 |  | 5 to 10 °C | 80 to 90% | 750 to 1500 nM | 5.82 to 6.12 | > 6.12 | ≤ 5.00 |  |  |  |  |  |  | 
14 | CNC(=O)c1ccc(OC)c(NCC#Cc2nc3c(N[C@@H]4CCNC[C@@H]4F)cccn3c2SC(F)(F)F)c1 [Example 218] | > 8.00 | ≥ 10 °C | ≥ 10 °C | 80 to 90% | < 750 nM | > 6.12 | > 6.12 | ≤ 5.00 |  |  |  |  |  |  | 
15 | CN1CC[C@@H](Nc2cccn3c(CC(F)(F)F)c(C#CC(C)(C)O)nc23)[C@@H](F)C1 [Example 69, 4-(8-{[(3S,4R)-3-fluoro-1-methylpiperidin-4-yl]amino}-3-(2,2,2-trifluoroethyl)imidazo[1,2-a]pyridin-2-yl)-2-methylbut-3-yn-2-ol] | 6.00 to 7.00 |  | 5 to 10 °C | < 70% | > 3000 nM | < 5.52 | < 5.52 | ≤ 5.00 |  |  |  |  |  |  | 
16 | CNC(=O)c1ccc(F)c(NCC#Cc2nc3c(N[C@@H]4CCN(C)C[C@@H]4F)cccn3c2SC(F)(F)F)c1 [Example 159] | > 8.00 | ≥ 10 °C |  | > 90% | < 750 nM | > 6.12 | > 6.12 | ≤ 5.00 |  |  |  |  |  |  | 
17 | CNC(=O)c1ccc(NCC#Cc2nc3c(N[C@@H]4CCN(C)C[C@@H]4F)cccn3c2CC(F)(F)F)c(OC)c1 [Example 36, 4-{[3-(8-{[(3S,4R)-3-fluoro-1-methylpiperidin-4-yl]amino}-3-(2,2,2-trifluoroethyl)imidazo[1,2-a]pyridin-2-yl)prop-2-yn-1-yl]amino}3-methoxy-N-methylbenzamide] | > 8.00 | 5 to 10 °C | ≥ 10 °C | 70 to 80% | 750 to 1500 nM | 5.82 to 6.12 | 5.82 to 6.12 | ≤ 5.00 |  |  |  |  |  |  | 
